{
  "source": "patent US20210353784A1",
  "about": "“DETECTING AND TREATING CANCERS USING CELL PENETRANT MTP53-OLIGOMERIZATION-DOMAIN PEPTIDE” (priority 2020, published 2021)",
  "key": {"WHIM6 and WHIM25 tumors": {"system": "WHIM6 and WHIM25 tumors", "experiment": "Epifluorescence imaging (IVIS) of Cy5p53Tet uptake in bilateral PDX WHIM6/WHIM25 tumors", "format": "in vivo, NSG mice", "settings": "10 nmol tail vein", "protocol": "In vivo optical imaging of Cy5p53Tet peptide uptake in bilateral PDX WHIM6/WHIM25 xenograft models. 2 million WHIM6 cells and WHIM25 cells were injected subcutaneously on the left and right shoulders of each mouse. 10 nmol Cy5p53Tet peptide was intravenously injected to each mouse when tumor size reached to 100-200 mm^3. At 1 hr, 2 hr and 3 hr post Cy5p53Tet peptide injection, the tumors were removed and the epifluorescence images were taken using an IVIS Spectrum. […] Cy5p53Tet peptide epifluorescence intensity quantification in WHIM6 and WHIM25 tumors was analyzed.\nFirst, WHIM6/WHIM25 bilateral PDX tumor-bearing NSG mice were tail vein injected with 10 nmol of Cy5p53Tet peptide to study its delivery efficacy (FIG. 5A). Then, the WHIM6 and WHIM25 tumors were removed at 1, 2, and 3 hr post-injection. Uptake of the Cy5p53Tet peptide in WHIM6 and WHIM25 tumors was assessed on an in vivo epifluorecent imaging system (IVIS). […] The Cy5p53Tet peptide signal was investigated in PDX tumor tissue by extracting proteins from the WHIM6 and WHIM25 tumors post-injection with the Cy5p53Tet peptide at 1 hr, 2 hr, and 3 hr, and the Cy5p53Tet peptide effects were characterized in PDX models (FIG. 5B). Samples were run on 12% polyacrylamide gel and the Cy5p53Tet peptide accumulated in tumors was scanned at Cy5 channel and quantified. […]"}, "MDA-MB-468.shp53 cells": {"system": "MDA-MB-468.shp53 cells", "experiment": "Cy5p53Tet uptake in MDA-MB-468 shp53 cells with or without mtp53 depletion (live cell imaging)", "format": "cell-based, Human", "settings": "500 nM"}, "[1]": {"system": "p53, p73 and PARP1 protein levels in WHIM6 and WHIM25 tumors", "experiment": "Western blot of p53, p73 and PARP1 protein levels in PDX tumors after Cy5p53Tet injection", "format": "in vivo, NSG mice", "description": "25 μg of proteins were run on 12% polyacrylamide gel and the Cy5p53Tet peptide accumulated in tumors was scanned at Cy5 channel and quantified. The intensity of Cy5p53Tet peptide was analyzed by ImageJ. p53 and MDM2 protein levels from the WHIM6 and WHIM25 tumors post-injection with Cy5p53Tet peptide at 1 hr, 2 hr and 3 hr were determined by Western blot analysis. 25 ug of proteins were load on 12% SDS-PAGE gel.\nFIG. 5C is a Western blot analysis showing p53, p63 and p73 protein levels from the WHIM6 and WHIM25 tumors 2 hr post injection with Cy5p53Tet peptide. 75 ug of proteins were load on 10% SDS-PAGE gel (left panel). p53, PARP1 and p73 protein levels from the WHIM6 and WHIM25 tumors 1 hr, 2 hr and 3 hr post injection with Cy5p53Tet peptide were determined by Western blot analysis (right panel). 50 ug of proteins were load on 10% SDS-PAGE gel.\nPDX models have been used in translational cancer research to validate the mechanisms that link specific biomarkers to treatment efficacy that could make clinical decisions. The coexpression of mtp53 and PARP1 proteins can be biomarkers for companion diagnostics using PDX models with mtp53. […] Uptake of the Cy5p53Tet peptide in WHIM6 and WHIM25 tumors was assessed on an in vivo epifluorecent imaging system (IVIS). The Cy5p53Tet peptide was detected in both TNBC PDX tumors; however, there was a higher Cy5 fluorescence signal in the tumor site of WHIM6 compared to tumor site of WHIM25 (FIG. 5A, represent picture of 2 hr post injection). […] Samples were run on 12% polyacrylamide gel and the Cy5p53Tet peptide accumulated in tumors was scanned at Cy5 channel and quantified. […]\nGiven the high degree of structural similarity of the tetramerization domain shared by the p53 family members, p63, and p73, the Cy5p53Tet peptide is believed to bind to TD of p63 or p73 and cause the Cy5p53Tet peptide accumulation in WHIM6 tumors. […] A higher level of p63 was detected in WHIM6 than in WHIM25 tumors (FIG. 5C left panel, compare lane 1 to 2). p73 protein levels were very low in both WHIM6 and WHIM25 tumors. […]"}},
  "data": [
    {"substance": "H-CysCy5-RKKRRQRRGEYFTLQIRGRERFEMFRELNEALELK-OH (N-terminal Cy5; Synthetic peptide based on p53 protein) [Cy5p53Tet]", "values": [
      {"measurement": "Cy5 fluorescence signal in the tumor site of WHIM6 compared to WHIM25", "setting": "WHIM6 and WHIM25 tumors", "value": "higher"},
      {"measurement": "reduction of the Cy5p53Tet signal upon mtp53 depletion (relative ROI intensity)", "setting": "MDA-MB-468.shp53 cells; 30 min", "value": 61, "unit": "%"},
      {"measurement": "reduction of the Cy5p53Tet signal upon mtp53 depletion (relative ROI intensity)", "setting": "MDA-MB-468.shp53 cells; 2 h", "value": 63, "unit": "%"},
      {"measurement": "reduction of the Cy5p53Tet signal upon mtp53 depletion (relative ROI intensity)", "setting": "MDA-MB-468.shp53 cells; 4 h", "value": 67, "unit": "%"},
      {"measurement": "difference of Cy5p53Tet signal between knockdown and control cells", "setting": "MDA-MB-468.shp53 cells; 24 h", "value": "no statistically significant difference"},
      {"measurement": "mtp53 and wtp53 protein levels upon treatment", "setting": "[1]; WHIM25 and WHIM6 tumors", "value": "not affected"},
      {"measurement": "PARP1 protein levels in response to the peptide", "setting": "[1]; mtp53 WHIM25 tumor samples", "value": "deceased"},
      {"measurement": "p73 protein levels in response to the peptide", "setting": "[1]; mtp53 WHIM25 tumor samples", "value": "increased"}
    ]}
  ]
}
